Literature values, collected in PMC9147442, “Design, Synthesis, and Evaluation of Linker-Optimised PSMA-Targeting Radioligands” (Pharmaceutics, 2022).

Set-up: method as in PMID 26985056
Conditions: radiotherapy

- renal excretion: ~ 50 % IA
Substance: [^177Lu]Lu-PSMA-617
